Results from the NIST ThermoML archive (doi:10.1021/je7005538).
Values joined by “and” are separate entries in the source; they are usually repeats but may differ in a detail not shown here. Identical values can stand only once.

Assay: xn = mol fraction of the nth substance listed
Conditions: Fluid (supercritical or subcritical phases), Vibrating tube method

Cc1c(C)c2c(c(C)c1O)CC[C@@](C)(CCC[C@H](C)CCC[C@H](C)CCCC(C)C)O2 [(+)-α-tocopherol] + O=C=O
mass density
Conditions | x1 = 0.0004 | x1 = 0.00042 | x1 = 0.00043 | x1 = 0.0005 | x1 = 0.00059 | x1 = 0.00074 | x1 = 0.00081
308.15 K, 10000 kPa | 720.4 kg/m3 | 718.9 kg/m3 and 720.9 kg/m3 | 720.6 kg/m3 | 720.3 kg/m3 | 720.2 kg/m3 | 721.2 kg/m3 | 720.9 kg/m3
308.15 K, 15000 kPa | 817.8 kg/m3 | 816.9 kg/m3 and 818.1 kg/m3 | 818.2 kg/m3 | 817.9 kg/m3 | 817.8 kg/m3 | 818.6 kg/m3 | 818.7 kg/m3
308.15 K, 20000 kPa | 867.2 kg/m3 | 866.7 kg/m3 and 867.6 kg/m3 | 867.5 kg/m3 | 867.4 kg/m3 | 867.3 kg/m3 | 868 kg/m3 | 868.2 kg/m3
308.15 K, 30000 kPa | 929.5 kg/m3 | 929.3 kg/m3 and 929.6 kg/m3 | 929.6 kg/m3 | 929.6 kg/m3 | 929.6 kg/m3 | 930 kg/m3 | 930.1 kg/m3
308.15 K, 40000 kPa | 971.9 kg/m3 | 971.9 kg/m3 and 972 kg/m3 | 972 kg/m3 | 972 kg/m3 | 972 kg/m3 | 972.2 kg/m3 | 972.3 kg/m3
313.15 K, 10000 kPa | 639 kg/m3 | 639 kg/m3 and 638.8 kg/m3 | 638.7 kg/m3 | 639.4 kg/m3 | 638.9 kg/m3 | 640 kg/m3 | 639.8 kg/m3
313.15 K, 15000 kPa | 782.3 kg/m3 | 782.6 kg/m3 and 782.3 kg/m3 | 782.5 kg/m3 | 782.8 kg/m3 | 782.4 kg/m3 | 783.3 kg/m3 | 783.1 kg/m3
313.15 K, 20000 kPa | 841 kg/m3 | 841.2 kg/m3 and 840.9 kg/m3 | 841.2 kg/m3 | 841.3 kg/m3 | 841.1 kg/m3 | 841.7 kg/m3 | 841.6 kg/m3
313.15 K, 30000 kPa | 910.2 kg/m3 | 910.3 kg/m3 and 910.1 kg/m3 | 910.3 kg/m3 | 910.4 kg/m3 | 910.3 kg/m3 | 910.7 kg/m3 | 910.6 kg/m3
313.15 K, 40000 kPa | 955.9 kg/m3 | 955.9 kg/m3 and 955.7 kg/m3 | 955.9 kg/m3 | 955.9 kg/m3 | 956 kg/m3 | 956.1 kg/m3 | 956 kg/m3
